Laboratory results published in patent publication US20050227302A1, “Induction of apoptosis via ARTS-IAP complexes” (priority 2004, published 2005).

Experiments:
[1] = tested on: XIAP; test: Co-immunoprecipitation of ARTS-XIAP complexes in NRP154 cells; format: cell-based, rat
Procedure: (§1) Protein extracts were prepared with lysis buffer (150 mM NaCl, 50 mM Tris-HCl (pH 8), 1% NP-40, 0.5% deoxycholate acid) with protease inhibitors. Lysates containing equal amounts of total protein were pre-cleared overnight with 1 mg mouse IgG (Sigma) coupled with protein A/G-Sepharose mix (Amersham Biosciences) and the beads centrifuged. Supernatants were immuno-precipitated using 5 μl of anti-ARTS antibody for 4 h, anti-XIAP antibody, rabbit anti-myc antibody, or mouse IgG (negative control). Protein A/G Sepharose beads were added for 1 hour and washed four times with PBS. Antibodies against XIAP (as above), Myc (Santa Cruz), or anti-ARTS (NT) antibodies directed against the common N′ terminus of ARTS and H5 (ProSci Incorporated) were used for Western blot.

[2] = tested on: COS-7 cells; test: Immunofluorescence of ARTS and XIAP localization in COS-7 cells; format: cell-based, African Green Monkey; conditions: for ARTS and XIAP co-localization: COS-7 cells transfected with AU5-ARTS and pcDNA3-Myc-XIAP, 100 mM etoposide
Procedure: Cells were fixed with 4% paraformaldehyde in PBS for 20 min at room temperature, washed with PBS, permeabilized with 0.5% Triton-X in PBS for 5 min, and incubated with primary antibodies for 2 hours at room temperature (rabbit polyclonal anti-ARTS (1:20,000; Sigma), monoclonal anti-ARTS, and/or monoclonal anti-XIAP (1:500; used in subsequent Examples). Cells were washed three times with PBS/0.1% Triton-X and incubated with FITC conjugated anti-mouse and Rhodamin^TX-conjugated anti-rabbit secondary antibodies (Jackson). Images were analyzed using a confocal laser microscope (Zeiss LSM 510). Mitochondria were visualized with MitoTracker® Red CMXRos (Molecular Probes/Invitrogen).
For caspase inhibition, we added […] of BOC-Asp(Ome)CH2F (Enzyme Systems Products) one hour prior to addition of the apoptotic agents.

[3] = tested on: XIAP; test: Co-immunoprecipitation of ARTS-XIAP complexes in COS-7 cells; format: cell-based, African Green Monkey
Procedure: as §1

[4] = tested on: ARTS; test: Cell fractionation, ARTS levels in sub-cellular fractions; format: cell-based; conditions: treated with staurosporine (STS) for 1 hour
Procedure: Cells were homogenized in 20 mM HEPES-KOH, pH 7.5, 10 mM KCl, 1.5 mM MgCl2, 1 mM sodium EDTA, 1 mM sodium EGTA, and 1 mM dithiothreitol in the presence of 250 mM sucrose and protease inhibitors. Homogenates were centrifuged at 500×g for 5 min at 4° C., and the supernatant was centrifuged at 10,000×g for 20 min to obtain mitochondria. The pellet was washed and solubilized in TNC buffer (10 mM Tris acetate, pH 8.0, 0.5% Nonidet P-40 (NP-40), 5 mM CaCl2) with protease inhibitors. Protein concentration was determined with a Micro-BCA kit (Pierce).

[5] = target: T1, XIAP (Homo sapiens, UniProt P98170); test: GST pull-down assay of ARTS and XIAP; format: binding; conditions: lysates of COS-7 cells transfected with AU5-tagged construct; Western blot anti-AU5
T1 construct: made in house; host or cells: bacteria (pGEX-XIAP plasmid obtained from Dr. Colin S. Duckett)
From the text: For the glutathione-S-transferase (GST)-pull down assays, ARTS was subcloned into the pGEX 4T™ (Pharmacia Biotech) construct; GST-ARTS fusion protein was generated by Polymerase Chain Reaction (PCR) using the following primers: • BamHI-5′-[…]-3′ (SEQ ID No: 4) and • EcoRI-5′ […]-3′ (SEQ ID No: 5) and cloned into BamHI and EcoRI sites in pGEX 4T. Preparation of Beads
For in vitro binding studies, recombinant GST-ARTS or GST-XIAP fusion proteins were purified from bacteria. After sonication, 0.1% Triton X-100 and protease inhibitors (Mini-Complete™, Roche) were added to the bacterial extract followed by 10,000 rotations per minute (RPM) centrifugation. Supernatants of bacterial extracts were collected and incubated in the presence of glutathione-Sepharose 4B beads (Amersham Biosciences) for 30 minute at 4° C. The beads were washed three times.
Cells were lysed in RIPA buffer (150 mM NaCl, 50 mM Tris-HCl (pH 8), 1% NP-40, 0.1% SDS, 0.5% deoxycholate acid containing protease inhibitors (mini Complete, Roche)). Samples were divided into two tubes; one was rotated for 4 h at 4° C. with GST-ARTS fusion protein coupled with the glutathione beads, or GST-XIAP fusion protein. The second tube was incubated with glutathione beads alone (negative control). Samples were centrifuged at 4000-RPM at 4° C. for 4 minute and washed five times in lysis buffer, then boiled in sample buffer for 5 minutes to elute bound proteins Proteins were separated on 12.5% SDS-PAGE gel followed by Western blot analysis using monoclonal anti-ARTS antibody (Sigma), monoclonal anti-XIAP antibody (BD Transduction Laboratories) or monoclonal anti-myc antibody (Clontech).

[6] = Larisch S et al, Nat Cell Biol 2: 915-921, 2000; cited from earlier work
[7] = tested on: COS-7 cells; test: Apoptosis assays (TUNEL, anti-H2A.X) in COS-7 cells; format: cell-based, African Green Monkey; design: induction of apoptosis (TUNEL): dose or concentration left out as unconfirmed; conditions: transiently transfected COS-7 cells, staurosporine (STS) for 1 or 3 hours
Procedure: Apoptotic cells were detected using the anti-H2A.X antibody (Upstate; Paull, et al., 2000) or TUNEL. For TUNEL assays, COS-7 cells were transiently transfected with AU5-ARTS, AU5-ARTSΔC, AU5-ARTSmGTP and AU5-H5. Twenty-four hours after transfection, the cells were treated with staurosporine (STS) ([…]) for 1 or 3 hours, then fixed and permeabilized. Apoptosis levels were determined using the TUNEL. In situ™ cell death detection TMR kit (Roche) according to the manufacturer's protocol. All slides were coded and experiments were performed in a blind manner.
Stably transfected COS-7 pE-ARTS cells were generated using the pEF1-IRES vector (Hobbs S et al, Biochem Biophys Res Commun 252: 368-372, 1998). The construct contains an EF-1 promoter followed by a multi cloning site, an EMC (Encephalomyocarditis virus) internal ribosome entry sites (IRES), and a puromycin resistance gene. AU5-tagged ARTS was inserted into the XhoI site downstream of the EF-1 promoter. The construct was stably transfected into COS-7 cells. The cells were maintained in medium containing 4 μg/ml puromycin.

T1 sequence (P98170 whole entry): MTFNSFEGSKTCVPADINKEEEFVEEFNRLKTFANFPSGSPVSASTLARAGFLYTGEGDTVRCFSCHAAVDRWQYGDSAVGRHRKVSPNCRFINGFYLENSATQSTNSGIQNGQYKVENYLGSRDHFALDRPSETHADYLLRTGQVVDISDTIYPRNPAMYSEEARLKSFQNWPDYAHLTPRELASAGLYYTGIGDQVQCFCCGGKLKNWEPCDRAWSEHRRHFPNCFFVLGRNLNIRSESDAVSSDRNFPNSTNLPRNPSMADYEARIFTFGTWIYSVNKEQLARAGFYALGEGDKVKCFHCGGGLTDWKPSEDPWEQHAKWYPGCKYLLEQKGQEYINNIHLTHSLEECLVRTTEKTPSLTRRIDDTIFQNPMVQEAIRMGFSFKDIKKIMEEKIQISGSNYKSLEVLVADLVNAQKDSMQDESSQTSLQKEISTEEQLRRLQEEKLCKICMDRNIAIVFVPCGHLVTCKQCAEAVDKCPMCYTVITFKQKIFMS

For `COc1cc([C@@H]2c3cc4c(cc3[C@@H](O[C@@H]3O[C@@H]5CO[C@@H](C)O[C@H]5[C@H](O)[C@H]3O)[C@H]3COC(=O)[C@H]23)OCO4)cc(OC)c1O` [etoposide], the ARTS-XIAP complexes ([1]; 6 hours of etoposide treatment (100 μM)) was “increased further”, the ARTS-XIAP complexes ([1]; three hours of etoposide treatment (100 μM)) was “a large number of ARTS-XIAP complexes were detected” and the ARTS localization ([2]; ARTS-transfected COS-7 cells treated with etoposide, absence of caspase inhibitors) was “accumulated ARTS in the nucleus”. For the same molecule, the “ARTS and XIAP co-localization” value ([2]; 2 hours) was “extensive overlap between ARTS and XIAP staining” and the “ARTS and XIAP co-localization” value ([2]; 16 hours) was “most of the staining for both proteins was confined to the nucleus”.

In the case of `CN[C@@H]1C[C@H]2O[C@@](C)([C@@H]1OC)n1c3ccccc3c3c4c(c5c6ccccc6n2c5c31)C(=O)NC4` [staurosporine, reference compound], the ARTS-XIAP binding ([3]; COS-7 cells, endogenous proteins, three hours of incubation with staurosporine) is reported as “significant increase in ARTS-XIAP binding” and the “ARTS levels in the cytosol” value [4] is reported as “strongly increased”.

B1: H5: H5 septin protein derived by differential splicing from the same locus as ARTS; considerably larger protein (protein)
chain: MDRSLGWQGNSVPEDRTEAGIKRFLEDTTDDGELSKFVKDFSGNASCHPPEAKTWASRPQVPEPRPQAPDLYDDDLEFRPPSRPQSSDNQQYFCAPAPLSPSARPRSPWGKLDPYDSSEDDKEYVGFATLPNQVHRKSVKKGFDFTLMVAGESGLGKSTLVNSLFLTDLYRDRKLLGAEERIMQTVEITKHAVDIEEKGVRLRLTIVDTPGFGDAVNNTECWKPVAEYIDQQFEQYFRDESGLNRKNIQDNRVHCCLYFISPFGHGLRPLDVEFMKALHQRVNIVPILAKADTLTPPEVDHKKRKIREEIEHFGIKIYQFPDCDSDEDEDFKLQDQALKESIPFAVIGSNTVVEARGRRVRGRLYPWGIVEVENPGHCDFVKLRTMLVRTHMQDLKDVTRETHYENYRAQCIQSMTRLVVKERNRNKLTRESGTDFPIPAVPPGTDPETEKLIREKDEELRRMQEMLHKIQKQMKENY
modifications: left off: small tags and cut ends
In the case of B1, the “binding to GST-XIAP” value [5] is listed as “Neither ARTSΔC nor H5 were able to bind to XIAP”, the “binding to XIAP in co-IP” value ([3]; COS-7 cells co-transfected with pcDNA-mycXIAP and AU5-tagged construct) is listed as “Neither of these mutants bound to XIAP” and the pro-apoptotic activity [6] is listed as “lacks pro-apoptotic activity”.

B2: ARTSΔC: ARTS construct that lacks 68 amino acids at the unique ARTS C′-terminal sequence (protein)
chain: MIKRFLEDTTDDGELSKFVKDFSGNASCHPPEAKTWASRPQVPEPRPQAPDLYDDDLEFRPPSRPQSSDNQQYFCAPAPLSPSARPRSPWGKLDPYDSSEDDKEYVGFATLPNQVHRKSVKKGFDFTLMVAGESGLGKSTLVNSLFLTDLYRDRKLLGAEERIMQTVEITKHAVDIEEKGVRLRLTIVDTPGFGDAVNNTECWKPV
modifications: left off: small tags and cut ends
For B2, the “binding to GST-XIAP” value [5] was “Neither ARTSΔC nor H5 were able to bind to XIAP” and the “induction of apoptosis (TUNEL)” value [7] was “did not induce apoptosis”.
